Source: ChEMBL document CHEMBL1142846, “Synthesis and cytotoxic activity of platinum complex immobilized by branched polyethylene glycol” (Bioorg Med Chem Lett, 2005)

Test: Inhibition concentration against C6 […] cells by the 3-(4,5-dimethylthiazol-2-yl)-2,5-diphenyltetrazoliumbromide (MTT) method
Assay type: functional, cell-based

With CISPLATIN as the sequence, how does the IC50 read?
The IC50 was 5.27 µM.
